{"source": "patent US20160038505A1", "about": "“METHODS AND COMPOSITIONS FOR TREATING IMPULSE CONTROL DISORDER, ANXIETY-RELATED DISORDERS, VIOLENCE AND/OR ANGER, OR REGULATING FOOD INTAKE” (priority 2014, published 2016)", "key": {"[1]": {"test_system": "opioid-dependent participants", "test": "Time to resumption of opioid substitution treatment and withdrawal scales (COWS, SOWS, OOWS)", "type": "in vivo, human", "description": "(§1) Three cohorts of nine (9) subjects (6 administered noribogaine and 3 administered placebo in each cohort) were evaluated for tolerability, pharmacokinetics, and efficacy. Cohort 1 received a single dose of 60 mg noribogaine or placebo. Cohort 2 received a single dose of 120 mg noribogaine or placebo. Cohort 3 received a single dose of 180 mg noribogaine or placebo.\nPatients were evaluated based on the Clinical Opiate Withdrawal Scale (COWS), Subjective Opiate Withdrawal Scale (SOWS), and Objective Opiate Withdrawal Scale (OOWS) scoring systems over the period of time between administration of noribogaine (or placebo) until resumption of OST. These scales are outlined in Guidelines for the Psychosocially Assisted Pharmacological Treatment of Opioid Dependence, World Health Organization, Geneva (2009), Annex 10, which is incorporated herein by reference in its entirety. The scales measure the intensity of withdrawal symptoms, based on clinical, subjective, and objective indicia."}, "[2]": {"test": "Human pharmacokinetic study, single oral tablet, fasting healthy volunteers (serum)", "type": "in vivo", "conditions": "fasting, serum", "description": "In double blind studies, fasting healthy volunteers (6 per cohort) were treated once orally with a tablet of noribogaine HCl. In escalating cohorts, the volunteers received 3 mg, 10 mg, 30 mg or 60 mg noribogaine."}, "[3]": {"test_system": "opioid-dependent participants", "test": "Treatment emergent adverse events in opioid-dependent participants (Phase IB)", "type": "in vivo, human", "description": "This example is to illustrate that noribogaine can be administered at a therapeutic dosing while maintaining an acceptable QT interval.\nSee PCT Application No. PCT/US2013/069235, filed Nov. 8, 2013, which is incorporated herein by reference in its entirety.\nas §1"}}, "data": [{"smiles": "CC[C@H]1CC2C[C@H]3c4[nH]c5ccc(O)cc5c4CCN(C2)C13", "note": "[noribogaine]", "values": [{"measurement": "withdrawal symptoms (COWS, OOWS, SOWS), first six hours following dosing", "setting": "[1]; 120 mg", "value": "generally experienced fewer withdrawal symptoms than the other patients"}, {"measurement": "average time to resumption of opioids (OST)", "setting": "[1]; single 120 mg dose", "value": "greater than 20 hours"}, {"measurement": "mean AUC/24 hr", "setting": "[2]; single dose of 3 mg", "value": 3.1, "unit": "ng/mL"}, {"measurement": "time after administration at which mean Cmax was observed", "setting": "[2]; single dose of 3 mg", "value": 1.9, "unit": "h"}, {"measurement": "mean AUC/24 hr", "setting": "[2]; single dose of 10 mg", "value": 10.6, "unit": "ng/mL"}, {"measurement": "time after administration at which mean Cmax was observed", "setting": "[2]; single dose of 10 mg", "value": 2.9, "unit": "h"}, {"measurement": "mean AUC/24", "setting": "[2]; single dose of 30 mg", "value": 29.2, "unit": "ng/mL"}, {"measurement": "time after administration at which mean Cmax was observed", "setting": "[2]; single dose of 30 mg", "value": 1.75, "unit": "h"}, {"measurement": "mean AUC/24", "setting": "[2]; single dose of 60 mg", "value": 61, "unit": "ng/mL"}, {"measurement": "time after administration at which mean Cmax was observed", "setting": "[2]; single dose of 60 mg", "value": 1.75, "unit": "h"}, {"measurement": "Adverse event: Catheter Site Infection", "setting": "[3]; 60 mg (N = 6)", "value": 0}, {"measurement": "Adverse event: Catheter Site Pain", "setting": "[3]; 60 mg (N = 6)", "value": 0}, {"measurement": "Adverse event: Catheter Site Related Reaction", "setting": "[3]; 60 mg (N = 6)", "value": 0}, {"measurement": "Adverse event: Cellulitis", "setting": "[3]; 60 mg (N = 6)", "value": 0}, {"measurement": "Adverse event: Diarrhoea", "setting": "[3]; 60 mg (N = 6)", "value": 0}, {"measurement": "Adverse event: Dry Mouth", "setting": "[3]; 60 mg (N = 6)", "value": 0}, {"measurement": "Adverse event: Ear and Labyrinth Disorders", "setting": "[3]; 60 mg (N = 6)", "value": 0}, {"measurement": "Adverse event: Epistaxis", "setting": "[3]; 60 mg (N = 6)", "value": 0}, {"measurement": "Adverse event: Euphoric Mood", "setting": "[3]; 60 mg (N = 6)", "value": 0}, {"measurement": "Adverse event: General Disorders and Administration Site Conditions", "setting": "[3]; 60 mg (N = 6)", "value": 0}, {"measurement": "Adverse event: Hyperaesthesia", "setting": "[3]; 60 mg (N = 6)", "value": 0}, {"measurement": "Adverse event: Infections and Infestations", "setting": "[3]; 60 mg (N = 6)", "value": 0}, {"measurement": "Adverse event: Limb Discomfort", "setting": "[3]; 60 mg (N = 6)", "value": 0}, {"measurement": "Adverse event: Malaise", "setting": "[3]; 60 mg (N = 6)", "value": 0}, {"measurement": "Adverse event: Nausea", "setting": "[3]; 60 mg (N = 6)", "value": 0}, {"measurement": "Adverse event: Oropharyngeal Pain", "setting": "[3]; 60 mg (N = 6)", "value": 0}, {"measurement": "Adverse event: Pseudoparalysis", "setting": "[3]; 60 mg (N = 6)", "value": 0}, {"measurement": "Adverse event: Respiratory, Thoracic and Mediastinal Disorders", "setting": "[3]; 60 mg (N = 6)", "value": 0}, {"measurement": "Adverse event: Rhinorrhoea", "setting": "[3]; 60 mg (N = 6)", "value": 0}, {"measurement": "Adverse event: Skin Discomfort", "setting": "[3]; 60 mg (N = 6)", "value": 0}, {"measurement": "Adverse event: Skin Irritation", "setting": "[3]; 60 mg (N = 6)", "value": 0}, {"measurement": "Adverse event: Skin and Subcutaneous Tissue Disorders", "setting": "[3]; 60 mg (N = 6)", "value": 0}, {"measurement": "Adverse event: Somnoience", "setting": "[3]; 60 mg (N = 6)", "value": 0}, {"measurement": "Adverse event: Tinnitus", "setting": "[3]; 60 mg (N = 6)", "value": 0}, {"measurement": "Adverse event: Tremor", "setting": "[3]; 60 mg (N = 6)", "value": 0}, {"measurement": "Adverse event: Urinary Tract Infection", "setting": "[3]; 60 mg (N = 6)", "value": 0}, {"measurement": "Adverse event: Vomiting", "setting": "[3]; 60 mg (N = 6)", "value": 0}, {"measurement": "Adverse event: Back Pain", "setting": "[3]; 120 mg (N = 6)", "value": 0}, {"measurement": "Adverse event: Catheter Site Infection", "setting": "[3]; 120 mg (N = 6)", "value": 0}, {"measurement": "Adverse event: Catheter Site Related Reaction", "setting": "[3]; 120 mg (N = 6)", "value": 0}, {"measurement": "Adverse event: Depressed Mood", "setting": "[3]; 120 mg (N = 6)", "value": 0}, {"measurement": "Adverse event: Dry Eye", "setting": "[3]; 120 mg (N = 6)", "value": 0}, {"measurement": "Adverse event: Dyspepsia", "setting": "[3]; 120 mg (N = 6)", "value": 0}, {"measurement": "Adverse event: Euphoric Mood", "setting": "[3]; 120 mg (N = 6)", "value": 0}, {"measurement": "Adverse event: Limb Discomfort", "setting": "[3]; 120 mg (N = 6)", "value": 0}, {"measurement": "Adverse event: Malaise", "setting": "[3]; 120 mg (N = 6)", "value": 0}, {"measurement": "Adverse event: Musculoskeletal and Connective Tissue Disorders", "setting": "[3]; 120 mg (N = 6)", "value": 0}, {"measurement": "Adverse event: Psychiatric Disorders", "setting": "[3]; 120 mg (N = 6)", "value": 0}, {"measurement": "Adverse event: Somnoience", "setting": "[3]; 120 mg (N = 6)", "value": 0}, {"measurement": "Adverse event: Urinary Tract Infection", "setting": "[3]; 120 mg (N = 6)", "value": 0}, {"measurement": "Adverse event: Catheter Site Infection", "setting": "[3]; 180 mg (N = 6)", "value": 0}, {"measurement": "Adverse event: Catheter Site Pain", "setting": "[3]; 180 mg (N = 6)", "value": 0}, {"measurement": "Adverse event: Depressed Mood", "setting": "[3]; 180 mg (N = 6)", "value": 0}, {"measurement": "Adverse event: Diarrhoea", "setting": "[3]; 180 mg (N = 6)", "value": 0}, {"measurement": "Adverse event: Dry Eye", "setting": "[3]; 180 mg (N = 6)", "value": 0}, {"measurement": "Adverse event: Dyspepsia", "setting": "[3]; 180 mg (N = 6)", "value": 0}, {"measurement": "Adverse event: Ear and Labyrinth Disorders", "setting": "[3]; 180 mg (N = 6)", "value": 0}, {"measurement": "Adverse event: Epistaxis", "setting": "[3]; 180 mg (N = 6)", "value": 0}, {"measurement": "Adverse event: Euphoric Mood", "setting": "[3]; 180 mg (N = 6)", "value": 0}, {"measurement": "Adverse event: Hyperaesthesia", "setting": "[3]; 180 mg (N = 6)", "value": 0}, {"measurement": "Adverse event: Malaise", "setting": "[3]; 180 mg (N = 6)", "value": 0}, {"measurement": "Adverse event: Oropharyngeal Pain", "setting": "[3]; 180 mg (N = 6)", "value": 0}, {"measurement": "Adverse event: Pseudoparalysis", "setting": "[3]; 180 mg (N = 6)", "value": 0}, {"measurement": "Adverse event: Psychiatric Disorders", "setting": "[3]; 180 mg (N = 6)", "value": 0}, {"measurement": "Adverse event: Respiratory, Thoracic and Mediastinal Disorders", "setting": "[3]; 180 mg (N = 6)", "value": 0}, {"measurement": "Adverse event: Rhinorrhoea", "setting": "[3]; 180 mg (N = 6)", "value": 0}, {"measurement": "Adverse event: Skin Discomfort", "setting": "[3]; 180 mg (N = 6)", "value": 0}, {"measurement": "Adverse event: Skin Irritation", "setting": "[3]; 180 mg (N = 6)", "value": 0}, {"measurement": "Adverse event: Skin and Subcutaneous Tissue Disorders", "setting": "[3]; 180 mg (N = 6)", "value": 0}, {"measurement": "Adverse event: Somnoience", "setting": "[3]; 180 mg (N = 6)", "value": 0}, {"measurement": "Adverse event: Tinnitus", "setting": "[3]; 180 mg (N = 6)", "value": 0}, {"measurement": "Adverse event: Tremor", "setting": "[3]; 180 mg (N = 6)", "value": 0}, {"measurement": "hallucinatory effects", "setting": "[3]; 60, 120 or 180 mg single dose", "value": "no hallucinatory effects"}]}]}
